Where a chain is given by its changes, count along the chain named.
Legend:
Conditions in all cases: at 100 nM
[1] = test system: T1, Receptor-type tyrosine-protein kinase FLT3 (Homo sapiens), P36888 [D835V]; experiment: (§1) Selectivity interaction (KinomeScan (DiscoverX)) EUB0000695a FLT3
T1 sequence (whole entry): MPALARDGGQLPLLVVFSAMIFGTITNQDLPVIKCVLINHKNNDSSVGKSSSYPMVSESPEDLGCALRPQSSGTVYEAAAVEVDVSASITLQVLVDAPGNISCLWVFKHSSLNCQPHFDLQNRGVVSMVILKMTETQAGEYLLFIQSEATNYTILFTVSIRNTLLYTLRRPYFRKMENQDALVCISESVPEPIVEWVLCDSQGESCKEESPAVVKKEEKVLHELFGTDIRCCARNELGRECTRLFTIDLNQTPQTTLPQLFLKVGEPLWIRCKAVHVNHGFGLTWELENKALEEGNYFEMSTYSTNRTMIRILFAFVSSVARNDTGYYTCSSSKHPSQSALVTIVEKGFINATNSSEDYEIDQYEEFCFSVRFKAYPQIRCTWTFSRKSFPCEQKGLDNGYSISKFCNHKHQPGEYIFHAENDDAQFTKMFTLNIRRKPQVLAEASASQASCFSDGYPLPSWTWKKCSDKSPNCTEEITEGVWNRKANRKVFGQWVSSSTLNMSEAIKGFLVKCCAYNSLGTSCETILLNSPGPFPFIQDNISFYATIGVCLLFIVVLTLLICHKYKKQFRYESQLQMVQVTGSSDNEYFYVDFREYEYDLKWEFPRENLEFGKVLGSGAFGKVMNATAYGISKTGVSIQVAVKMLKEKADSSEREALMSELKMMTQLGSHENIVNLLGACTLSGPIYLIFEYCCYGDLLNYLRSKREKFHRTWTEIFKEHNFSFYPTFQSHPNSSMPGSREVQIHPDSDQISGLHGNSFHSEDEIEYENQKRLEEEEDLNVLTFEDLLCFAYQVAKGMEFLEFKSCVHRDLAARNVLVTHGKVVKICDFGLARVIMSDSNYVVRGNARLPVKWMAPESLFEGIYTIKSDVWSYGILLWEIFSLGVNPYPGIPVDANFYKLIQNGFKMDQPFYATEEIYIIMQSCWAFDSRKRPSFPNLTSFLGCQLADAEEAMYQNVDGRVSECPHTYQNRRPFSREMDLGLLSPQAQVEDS

[2] = test system: T2, Receptor-type tyrosine-protein kinase FLT3 (Homo sapiens), P36888 [K663Q]; experiment: as §1
T2 sequence (whole entry): T1 sequence (whole entry) with K663Q, V835D

[3] = test system: T3, Receptor-type tyrosine-protein kinase FLT3 (Homo sapiens), P36888 [N841I]; experiment: as §1
T3 sequence (whole entry): T1 sequence (whole entry) with V835D, N841I

Cc1cc(F)c(C(=O)Nc2cccc(-c3nncn3C(C)C)n2)cc1-n1cnc(C2CC2)c1
% of control [1]: 100% | % of control [2]: 97% | % of control [3]: 93%

Source: ChEMBL document CHEMBL5465560, “Selectivity Literature for EUbOPEN Chemogenomic Library” (2024)
